Where two headings read alike, the source gives them in different places. No end group written: not given here.
What was measured:
Assay in all cases: biochemical
Type in all cases: binding
[1] = molecular target: HLA-A*3002 (Homo sapiens, UniProt P04439, D101N/D140H/D185E/E176R/F33S/G80R/H175R/K168Q/Q94H/R138E/R41S/V100E)
[2] = molecular target: HLA-A*2301 (Homo sapiens, UniProt P04439, D101N/D140Y/D185E/E176V/E190D/F33S/G103R/G107R/H175R/I119L/I121M/I306V/K168Q/K335N/L105A/L300P/N151K/N90K/P307H/Q86E/Q94H/R106L/R138H/R89G/T104I/T345S/V100E/W191G/Y123F)
[3] = molecular target: HLA-A*0202 (Homo sapiens, UniProt P04439, D140Y/D185E/D98H/E176V/E277Q/G131W/G231S/I119L/I121R/I166T/I218V/L180W/L300P/L318F/N151K/N90K/P208A/P217A/Q67R/Q86G/Q94H/R138H/R169H/T345S)
[4] = molecular target: HLA-A*0206 (Homo sapiens, UniProt P04439, D140Y/D185E/D98H/E176V/E277Q/F33Y/G131W/G231S/I119V/I121R/I166T/I218V/L300P/L318F/N151K/N90K/P208A/P217A/Q86G/Q94H/R138H/R169H/T345S)
[5] = molecular target: HLA-A*0201 (Homo sapiens, UniProt P04439, D140Y/D185E/D98H/E176V/E277Q/G131W/G231S/I119V/I121R/I166T/I218V/L300P/L318F/N151K/N90K/P208A/P217A/Q86G/Q94H/R138H/R169H/T345S)
[6] = molecular target: HLA-A*6802 (Homo sapiens, UniProt P04439, A269V/D140Y/D185E/E176V/E277Q/E87N/F33Y/G231S/I121R/I166T/I218V/L180W/L300P/L318F/N151K/P208A/P217A/Q86R/R138H/R169H/S129P/T345S/V36M)
[7] = molecular target: HLA-A*0203 (Homo sapiens, UniProt P04439, A173T/D140Y/D185E/D98H/E277Q/G131W/G231S/I119V/I121R/I166T/I218V/L180W/L300P/L318F/N151K/N90K/P208A/P217A/Q86G/Q94H/R138H/R169H/T345S)
[8] = A*0202 binding affinity (expressed as an IC50)
[9] = A*0206 binding affinity (expressed as an IC50)
[10] = A*0201 binding affinity (expressed as an IC50)
[11] = A*6802 binding affinity (expressed as an IC50)
[12] = A*0203 binding affinity (expressed as an IC50)

Row | Compound | IC50 [3, 8] | IC50 [4, 9] | IC50 [5, 10] | IC50 [6, 11] | IC50 [7, 12] | IC50 [3] | IC50 [4] | IC50 [5] | IC50 [6] | IC50 [7] | also measured
1 | FYSKVSEF | – | – | – | – | – | – | – | – | – | – | IC50 ([1]; A*3002 binding affinity (IC50)): 66.7 µM; IC50 [2]: 0.018 µM
2 | KTKDIVNGL | – | – | – | – | – | – | – | – | – | – | IC50 ([1]; A*3002 binding affinity (IC50)): 0.164 µM; IC50 [2]: > 49 µM
3 | CC(C)C[C@H](NC(=O)[C@@H](N)CO)C(=O)N[C@@H](Cc1ccccc1)C(=O)N[C@H](C(=O)N[C@@H](CO)C(=O)N[C@@H](CC(N)=O)C(=O)N[C@@H](Cc1c[nH]cn1)C(=O)N[C@@H](C)C(=O)N[C@@H](Cc1ccc(O)cc1)C(=O)O)C(C)C | – | – | – | – | – | – | – | – | – | – | IC50 [1]: 0.0011 µM; IC50 [2]: 30.3 µM
4 | CC[C@H](C)[C@H](N)C(=O)N[C@@H](CCSC)C(=O)N[C@H](C(=O)N[C@@H](CC(C)C)C(=O)N[C@@H](CO)C(=O)N[C@@H](Cc1ccccc1)C(=O)N[C@@H](CC(C)C)C(=O)N[C@@H](Cc1ccccc1)C(=O)O)C(C)C | – | – | – | – | – | – | – | – | – | – | IC50 [1]: 30 µM; IC50 [2]: 0.0075 µM
5 | TYCCKCDSTL | – | – | – | – | – | – | – | – | – | – | IC50 ([2]; read-out: A*2301 binding affinity (IC50)): 0.03 µM
6 | RVLPPNWKY | – | – | – | – | – | – | – | – | – | – | IC50 [1]: 0.003 µM; IC50 [2]: > 49 µM
7 | FMGVIYIMI | 0.0021 µM | 0.098 µM | 0.013 µM | 14.5 µM | 0.026 µM | – | – | – | – | – | –
8 | ILWQVDRM | – | – | – | – | – | 0.067 µM | 11.3 µM | 1.75 µM | > 19.5 µM | 3 µM | –
9 | KLTPFCVTL | – | – | – | – | – | 0.00037 µM | 0.078 µM | 0.087 µM | 11.8 µM | 0.028 µM | –
10 | LLLPPLERLTL | – | – | – | – | – | 2.61 µM | 0.045 µM | 0.034 µM | > 12.8 µM | 9.01 µM | –
11 | LIFHFFLFLL | 1.47 µM | 1.56 µM | 0.2 µM | 0.46 µM | 3.17 µM | – | – | – | – | – | –
12 | DFFLKSKFNI | – | – | – | – | – | – | – | – | – | – | IC50 [2]: 0.304 µM
13 | IISAVVGIV | 0.015 µM | 0.958 µM | 0.712 µM | 0.39 µM | 0.02 µM | – | – | – | – | – | –
14 | ILAEAMSQA | – | – | – | – | – | 0.001 µM | 0.0086 µM | 0.029 µM | 0.253 µM | 0.0011 µM | –
15 | RYQDPQNYEL | – | – | – | – | – | – | – | – | – | – | IC50 [2]: 0.124 µM
16 | ATYGIIVPV | 0.002 µM | 0.005 µM | 0.0032 µM | 0.021 µM | 0.0028 µM | – | – | – | – | – | –
17 | IISAVVGFL | 0.001 µM | 0.234 µM | 0.747 µM | 0.077 µM | 0.0048 µM | – | – | – | – | – | –
18 | GLIYSKKRQEV | – | – | – | – | – | 0.057 µM | > 8.56 µM | 8.97 µM | > 14.3 µM | 0.152 µM | –
19 | EILDLWVYHV | – | – | – | – | – | 0.569 µM | 2.23 µM | 0.496 µM | 0.163 µM | 1.87 µM | –
20 | VLAGPGPGVTL | 0.0024 µM | 7.2 µM | 1.12 µM | 2.64 µM | 0.094 µM | – | – | – | – | – | –
21 | GLGAVSRDL | – | – | – | – | – | 0.436 µM | > 10.4 µM | 18.7 µM | > 16.7 µM | 1.73 µM | –
22 | VLAEAMSRA | – | – | – | – | – | 0.00088 µM | 0.02 µM | 0.127 µM | 0.229 µM | 0.001 µM | –
23 | YTPGPGIRYPV | 1.99 µM | 1.11 µM | 7.76 µM | 0.0092 µM | 11.1 µM | – | – | – | – | – | –
24 | ELVSEFSRV | 0.969 µM | 0.197 µM | 8.18 µM | 0.023 µM | 0.053 µM | – | – | – | – | – | –
25 | LQLPPLERLTV | – | – | – | – | – | 4.54 µM | 0.052 µM | 0.159 µM | > 61.1 µM | 6.27 µM | –
26 | VLAKEGPGPGL | 0.0069 µM | 59 µM | 1.89 µM | 51 µM | 0.037 µM | – | – | – | – | – | –
27 | RTLHDLCQA | 0.034 µM | 0.096 µM | 8.12 µM | 61.6 µM | 0.678 µM | – | – | – | – | – | –
28 | KISAVVGIL | 0.042 µM | 1.75 µM | 6.24 µM | 4.95 µM | 0.06 µM | – | – | – | – | – | –
29 | TLGPGPGHL | 0.035 µM | 12.1 µM | 15 µM | 27.9 µM | 0.066 µM | – | – | – | – | – | –
30 | YLLTGPGPGI | 0.015 µM | 0.06 µM | 0.042 µM | 5.68 µM | 0.059 µM | – | – | – | – | – | –
